{"source": "patent EP0312245A2", "about": "“Polycyclic compounds and pharmaceutical compositions thereof” (NORISTAN HOLDINGS LIMITED, priority 1987, dated 1989)", "key": {"[1]": {"test_system": "guinea-pig papillary muscle", "test": "Electrophysiological test: action potential of guinea-pig papillary muscle (microelectrode technique)", "details": "for minimal effective concentration: Cavia porcellus; for TIME 1 (Shortest time needed to attain suppression) / TIME 2 (Shortest time needed for reversal of effect by washing out of compound): at the listed bath concentration; for DEGREE OF SUPPRESSION: suppression of action potential at the listed bath concentration", "experimental": "Electrophysiological studies were conducted on guinea-pig papillary muscle.\nUsing a microelectrode technique, action potentials were measured from guinea-pig papillary muscles. Action potentials were evoked by electrical stimulation (platinum electrode, Grass S88 stimulator, 1 Hz stimulation frequency; voltage, 10% above threshold). […] The preparations were electrically driven (pacing intervals 1 s, duration 2-5 ms). Slow (Ca2+ mediated) action potentials were evoked in a depolarizing solution (22 mmol/l K and 5 mmol/I Ca^2+) at 0,35 Hz stimulation frequency in order to ensure complete removal of inactivation of slow inward current."}, "[2]": {"test_system": "isolated rabbit ear preparation", "test": "Rabbit ear perfusion test (adrenaline-induced tone, perfusion pressure)", "experimental": "Female New Zealand White rabbits (approximately 4kg) were anaesthetised with Sagatal ® (0.5ml/kg).\nThe central ear artery was cannulated using a 20 G catheter and the ear cut off at its base. Heparinised (5ml, 200 IU;ml) Krebs bicarbonate solution was perfused through the ear to expel the blood. The ear was placed in a warming jacket at 37°C and attached via the arterial catheter to the perfusion pump. Perfusion of the ear with aerated (95% 025% C02)Krebs bicarbonate solution at 37° C was commenced at a rate of 6.5ml/min using a Watson Marlow peristaltic pump. The perfusion pressure was monitored continuously using a pressure transducer (Type 4-327-1221, Consoliated Electrodynamics) coupled to a Devices Recorder.\nFollowing an equilibration period of 15 minutes, increased tone was induced in the preparation by addition of adrenaline (1µg/ml) to the perfusion fluid.\nAfter a stable tone was observed, various concentrations of test compounds were injected into the perfusion fluid and examined for their effect on the perfusion pressure. The effect of vehicle (0.2ml, 50% Krebs 50% ethanol) was also tested on the ear preparation."}, "[3]": {"test_system": "cardiac myocytes", "test": "Calcium current blockade in cardiac myocytes (voltage clamp)", "format": "cell-based, guinea-pig", "details": "voltage clamp experiments of cardiac myocytes", "experimental": "Ventricular myocytes were isolated from guinea-pig hearts by enzymatic dispersion of the cells using a method related to that employed by Mitra and Morad. After 5 minutes of perfusion at 37 °C on a Langendorff apparatus, the Tyrode solution was changed for a Ca-free solution for 5 minutes, after which the heart was perfused with a 40ml Ca-free solution containing 12mg collagenase (Type II, Sigma) and 10mg protease (Type XIV; Sigma). Perfusion with the soluticn containing enzymes was usually stopped within 5 minutes or as soon as dark areas appeared on the ventricles. The heart was then perfused with a Tyrode solution containing 0.8mM Ca for a few minutes, after which the ventricles were cut in small pieces and the isolated cells were shaken free in a 50ml beaker containing Tyrode solution.\nTyrode solution containing 5.4 mM KCI; 1.8 mM CaC12; 0.5 mM MgClz; 137.6 mM NaCI; 5 mM glucose and 11.6 mM HEPES. The pH was adjusted to 7.4 with NaOH. […] No change in the pH of the Tyrode solution could be measured after this addition. […]\nSuction pipettes with resistance values between 2 and 5 MΩ were drawn from borosilicate glass (Jencons, H15/10) and heat polished. […] The results were recorded on magnetic tape or floppy disk. […] Calcium currents were measured as the difference between the maximum slow inward current and the current recorded after 400 ms."}, "[4]": {"test_system": "spontaneously hypertensive rats (SHR )", "test": "Antihypertensive test: mean arterial pressure in spontaneously hypertensive rats", "format": "in vivo, rat", "details": "statement in words", "experimental": "The effect of Compound 3 on the mean arterial pressure was determined on spontaneously hypertensive rats (SHR ) by means of direct pressure transducing. Groups of 6 male rats of mass 210-300g were used. The average of ten pressure determinations was used. Normotensive (BD-9) rats were used as animal controls, while normal saline solution (containing some traces of polyethylene glycol and ethanol to aid in the solution of the test compounds) was used as solvent and as solvent control.\nAfter verifying the mass of the animal, it was placed under general anaesthesia by administering 60mgikg pentobarbitone (Sagatal@) intraperitonially. The tracheal tube and carotid artery were both exposed by dissection. An intranule was introduced into the trachea as aid ventilation. The carolid artery was canalated and coupled to a pressure sensor. The sysolic, diastolic and mean arterial pressure were monitored via a Spacelab 514 patient monitor and registered on a Vitatek 551 plotter. During the experiment the exposed tissue of the rat was covered with guaze and kept damp with normal saline.\nThe drugs and solvent controls were administered intravenously into the dorsal penile vein after stabilization of the blood pressure (BP) had occurred. After drug administration, the BP was recorded every 5 minutes for a period of 30 min."}}, "note": "Read-outs that look alike come from different tables or passages of the source."}
{"smiles": "CCCCCCCCNC12OC3C4C5CC(C6C5C3C61)C42", "note": "(racemic) [Compound 3, 8-η-Octylamino-8,11-oxopentacyclo[5.4.0 .0^2,6.0^3,10.0^5,9]undecane]", "values": [{"measurement": "minimal effective concentration", "setting": "[1]; read-out: BATH CONCENTRATION (Lowest concentration of the compound to induce suppression of action potential), Table 3, guinea-pig papillary muscle", "value": 62.5, "unit": "µM"}, {"measurement": "minimal effective concentration", "setting": "[1]; read-out: BATH CONCENTRATION (Lowest concentration of the compound to induce suppression of action potential), Table 4, racemates and optical isomers", "value": 62.5, "unit": "µM"}, {"measurement": "TIME 1 (Shortest time needed to attain suppression)", "setting": "[1]; Table 3", "value": 6, "unit": "min"}, {"measurement": "TIME 2 (Shortest time needed for reversal of effect by washing out of compound)", "setting": "[1]; Table 3", "value": 6, "unit": "min"}, {"measurement": "DEGREE OF SUPPRESSION", "setting": "[1]; Table 3", "value": "complete"}, {"measurement": "TIME 1 (Shortest time needed to attain suppression)", "setting": "[1]; Table 4", "value": 6, "unit": "min"}, {"measurement": "TIME 2 (Shortest time needed for reversal of effect by washing out of compound)", "setting": "[1]; Table 4", "value": 6, "unit": "min"}, {"measurement": "DEGREE OF SUPPRESSION", "setting": "[1]; Table 4", "value": "complete"}, {"measurement": "inhibition at 0.01 mg", "setting": "[2]; Oryctolagus cuniculus, Table 5, dose 10 µg, read-out: Mean % change in perfusion pressure", "value": 8.5, "unit": "%"}, {"measurement": "inhibition at 0.0316 mg", "setting": "[2]; Oryctolagus cuniculus, Table 5, dose 31.6 µg, read-out: Mean % change in perfusion pressure", "value": 11.5, "unit": "%"}, {"measurement": "inhibition at 0.1 mg", "setting": "[2]; Oryctolagus cuniculus, Table 5, dose 100 µg, read-out: Mean % change in perfusion pressure", "value": 16.5, "unit": "%"}, {"measurement": "inhibition at 0.316 mg", "setting": "[2]; Oryctolagus cuniculus, Table 5, dose 316 µg, read-out: Mean % change in perfusion pressure", "value": 26, "unit": "%"}, {"measurement": "inhibition at 1 mg", "setting": "[2]; Oryctolagus cuniculus, Table 5, dose 1000 µg, read-out: Mean % change in perfusion pressure", "value": 41, "unit": "%"}, {"measurement": "inhibition at 0.01 mg", "setting": "[2]; Oryctolagus cuniculus, Table 6, dose 10 μg, read-out: Corrected mean % change in perfusion pressurre", "value": 5.5, "unit": "%"}, {"measurement": "inhibition at 0.0316 mg", "setting": "[2]; Oryctolagus cuniculus, Table 6, dose 31.6 μg, read-out: Corrected mean % change in perfusion pressurre", "value": 5.5, "unit": "%"}, {"measurement": "inhibition at 0.1 mg", "setting": "[2]; Oryctolagus cuniculus, Table 6, dose 100 μg, read-out: Corrected mean % change in perfusion pressurre", "value": 11.5, "unit": "%"}, {"measurement": "inhibition at 0.316 mg", "setting": "[2]; Oryctolagus cuniculus, Table 6, dose 316 μg, read-out: Corrected mean % change in perfusion pressurre", "value": 20.5, "unit": "%"}, {"measurement": "inhibition at 1 mg", "setting": "[2]; Oryctolagus cuniculus, Table 6, dose 1000 μg, read-out: Corrected mean % change in perfusion pressurre", "value": 34.5, "unit": "%"}, {"measurement": "inhibition at 0.0316 mg", "setting": "[2]; Oryctolagus cuniculus, Table 7, dose 31.6 μg, read-out: Mean % change in perfusion pressure", "value": 9.4, "unit": "%"}, {"measurement": "inhibition at 0.1 mg", "setting": "[2]; Oryctolagus cuniculus, Table 7, dose 100 μg, read-out: Mean % change in perfusion pressure", "value": 17.3, "unit": "%"}, {"measurement": "inhibition at 0.316 mg", "setting": "[2]; Oryctolagus cuniculus, Table 7, dose 316 μg, read-out: Mean % change in perfusion pressure", "value": 24.7, "unit": "%"}, {"measurement": "inhibition at 1 mg", "setting": "[2]; Oryctolagus cuniculus, Table 7, dose 1000 μg, read-out: Mean % change in perfusion pressure", "value": 28.9, "unit": "%"}, {"measurement": "inhibition at 3.16 mg", "setting": "[2]; Oryctolagus cuniculus, Table 7, dose 3160 μg, read-out: Mean % change in perfusion pressure", "value": 27.6, "unit": "%"}, {"measurement": "Mean time taken to return to pre-dose volume", "setting": "[2]; Table 5, dose 31.6 µg", "value": 1.75, "unit": "min"}, {"measurement": "Mean time taken to return to pre-dose volume", "setting": "[2]; Table 5, dose 100 µg", "value": 4.25, "unit": "min"}, {"measurement": "Mean time taken to return to pre-dose volume", "setting": "[2]; Table 5, dose 316 µg", "value": 5.5, "unit": "min"}, {"measurement": "Mean time taken to return to pre-dose volume", "setting": "[2]; Table 5, dose 1000 µg", "value": 8.75, "unit": "min"}, {"measurement": "Mean time to return to predose value", "setting": "[2]; Table 6, dose 100 μg", "value": 4.25, "unit": "min"}, {"measurement": "Mean time to return to predose value", "setting": "[2]; Table 6, dose 316 μg", "value": 7.0, "unit": "min"}, {"measurement": "Mean time to return to predose value", "setting": "[2]; Table 6, dose 1000 μg", "value": 10.5, "unit": "min"}, {"measurement": "Mean time taken to return to predose volume", "setting": "[2]; Table 7, dose 31.6 μg", "value": 6.3, "unit": "min"}, {"measurement": "Mean time taken to return to predose volume", "setting": "[2]; Table 7, dose 100 μg", "value": 6.3, "unit": "min"}, {"measurement": "Mean time taken to return to predose volume", "setting": "[2]; Table 7, dose 316 μg", "value": 8.5, "unit": "min"}, {"measurement": "Mean time taken to return to predose volume", "setting": "[2]; Table 7, dose 1000 μg", "value": 19.3, "unit": "min"}, {"measurement": "Mean time taken to return to predose volume", "setting": "[2]; Table 7, dose 3160 μg", "value": 15.0, "unit": "min"}, {"measurement": "block of the calcium current", "setting": "[3]", "value": "pronounced frequency dependent block"}, {"measurement": "Antihypertensive activity", "setting": "[4]", "value": "Antihypertensive activity has also been obtained"}]}
